A short description of this series: activity coefficient (dimensionless); of the first substance listed, at infinite dilution; xn = mol fraction of the nth substance listed. The following applies: 101.33 kPa, Liquid, Chromatography, x1 = 0.

SMILES strings stand for the structures. Numbers after ± are expanded uncertainties.

For the compound `CC(C)OC(C)C` [diisopropyl ether] + CCCCCCCCCCCC[N+](C)(C)CCOc1ccccc1.O=S(=O)([N-]S(=O)(=O)C(F)(F)F)C(F)(F)F, the activity coefficient (318.15 K) was found to be 1.9 ± 0.13; the activity coefficient (328.15 K) stood at 1.97 ± 0.13; the activity coefficient (338.15 K) is 2.03 ± 0.14; the activity coefficient (348.15 K) was 2.1 ± 0.14; the activity coefficient (358.15 K) turned out to be 2.16 ± 0.15; the activity coefficient (368.15 K) turned out to be 2.22 ± 0.15.

Take `CCCOCCC` [dipropyl ether] + CCCCCCCCCCCC[N+](C)(C)CCOc1ccccc1.N#C[N-]C#N: the activity coefficient runs as follows: (328.15 K) 3.36 ± 0.23; (338.15 K) 3.46 ± 0.24; (348.15 K) 3.54 ± 0.24; (358.15 K) 3.61 ± 0.25; (368.15 K) 3.68 ± 0.25; (378.15 K) 3.76 ± 0.26.

On to `CCCOCCC` [dipropyl ether] + CCCCCCCCCCCC[N+](C)(C)CCOc1ccccc1.O=S(=O)([N-]S(=O)(=O)C(F)(F)F)C(F)(F)F, for which the activity coefficient is, setting by setting: (318.15 K) 1.78 ± 0.12; (328.15 K) 1.85 ± 0.12; (338.15 K) 1.92 ± 0.13; (348.15 K) 1.99 ± 0.14; (358.15 K) 2.06 ± 0.14; (368.15 K) 2.13 ± 0.14.

For the compound `CCO` [ethanol] + CCCCCCCCCCCC[N+](C)(C)CCOc1ccccc1.N#C[N-]C#N, the activity coefficient is, setting by setting: (328.15 K) 0.411 ± 0.034; (338.15 K) 0.421 ± 0.035; (348.15 K) 0.429 ± 0.035; (358.15 K) 0.438 ± 0.035; (368.15 K) 0.446 ± 0.036; (378.15 K) 0.453 ± 0.036.

Regarding `CCO` [ethanol] + CCCCCCCCCCCC[N+](C)(C)CCOc1ccccc1.O=S(=O)([N-]S(=O)(=O)C(F)(F)F)C(F)(F)F, the activity coefficient is, setting by setting: (318.15 K) 1.24 ± 0.08; (328.15 K) 1.2 ± 0.08; (338.15 K) 1.16 ± 0.07; (348.15 K) 1.12 ± 0.07; (358.15 K) 1.09 ± 0.07; (368.15 K) 1.06 ± 0.07.

For `CCOC(C)=O` [ethyl acetate] + CCCCCCCCCCCC[N+](C)(C)CCOc1ccccc1.N#C[N-]C#N, the activity coefficient reads like this: (328.15 K) 1.2 ± 0.08; (338.15 K) 1.24 ± 0.08; (348.15 K) 1.27 ± 0.08; (358.15 K) 1.31 ± 0.09; (368.15 K) 1.34 ± 0.09; (378.15 K) 1.37 ± 0.09.

On to `CCOC(C)=O` [ethyl acetate] + CCCCCCCCCCCC[N+](C)(C)CCOc1ccccc1.O=S(=O)([N-]S(=O)(=O)C(F)(F)F)C(F)(F)F, for which the activity coefficient is 0.505 ± 0.038 (318.15 K); 0.533 ± 0.039 (328.15 K); 0.563 ± 0.04 (338.15 K); 0.592 ± 0.042 (348.15 K); 0.62 ± 0.043 (358.15 K); 0.648 ± 0.044 (368.15 K).

With `CCc1ccccc1` [ethylbenzene] + CCCCCCCCCCCC[N+](C)(C)CCOc1ccccc1.N#C[N-]C#N, the activity coefficient (328.15 K) was 1.4 ± 0.09; the activity coefficient (338.15 K) stood at 1.45 ± 0.1; the activity coefficient (348.15 K) worked out at 1.5 ± 0.1; the activity coefficient (358.15 K) was 1.55 ± 0.1; the activity coefficient (368.15 K) is 1.6 ± 0.11; the activity coefficient (378.15 K) came to 1.64 ± 0.11.

In the case of `CCc1ccccc1` [ethylbenzene] + CCCCCCCCCCCC[N+](C)(C)CCOc1ccccc1.O=S(=O)([N-]S(=O)(=O)C(F)(F)F)C(F)(F)F, the activity coefficient is, setting by setting: (318.15 K) 0.9 ± 0.057; (328.15 K) 0.948 ± 0.06; (338.15 K) 0.995 ± 0.062; (348.15 K) 1.04 ± 0.07; (358.15 K) 1.09 ± 0.07; (368.15 K) 1.13 ± 0.07.

Consider `CCCCCCC` [heptane] + CCCCCCCCCCCC[N+](C)(C)CCOc1ccccc1.N#C[N-]C#N, for which the activity coefficient amounted to 5.99 ± 0.41 (328.15 K); 6.08 ± 0.41 (338.15 K); 6.16 ± 0.42 (348.15 K); 6.24 ± 0.43 (358.15 K); 6.33 ± 0.43 (368.15 K); 6.41 ± 0.44 (378.15 K).

As for `CCCCCCC` [heptane] + CCCCCCCCCCCC[N+](C)(C)CCOc1ccccc1.O=S(=O)([N-]S(=O)(=O)C(F)(F)F)C(F)(F)F, the activity coefficient was 3.44 ± 0.23 (318.15 K); 3.52 ± 0.24 (328.15 K); 3.6 ± 0.25 (338.15 K); 3.68 ± 0.25 (348.15 K); 3.75 ± 0.26 (358.15 K); 3.83 ± 0.26 (368.15 K).

`C=CCCCC` [hex-1-ene] + CCCCCCCCCCCC[N+](C)(C)CCOc1ccccc1.N#C[N-]C#N: the activity coefficient runs as follows: (328.15 K) 3.59 ± 0.24; (338.15 K) 3.68 ± 0.25; (348.15 K) 3.76 ± 0.26; (358.15 K) 3.84 ± 0.26; (368.15 K) 3.9 ± 0.27; (378.15 K) 3.99 ± 0.27.

As for `C=CCCCC` [hex-1-ene] + CCCCCCCCCCCC[N+](C)(C)CCOc1ccccc1.O=S(=O)([N-]S(=O)(=O)C(F)(F)F)C(F)(F)F, the activity coefficient by setting is: (318.15 K) 2.19 ± 0.15; (328.15 K) 2.24 ± 0.15; (338.15 K) 2.28 ± 0.16; (348.15 K) 2.32 ± 0.16; (358.15 K) 2.36 ± 0.16; (368.15 K) 2.41 ± 0.16.

Turning to `CCCCCC` [hexane] + CCCCCCCCCCCC[N+](C)(C)CCOc1ccccc1.N#C[N-]C#N, the activity coefficient (328.15 K) is 5.12 ± 0.35; the activity coefficient (338.15 K) came to 5.22 ± 0.36; the activity coefficient (348.15 K) was determined as 5.3 ± 0.36; the activity coefficient (358.15 K) turned out to be 5.41 ± 0.37; the activity coefficient (368.15 K) is 5.53 ± 0.38; the activity coefficient (378.15 K) was determined as 5.6 ± 0.38.

On to `CCCCCC` [hexane] + CCCCCCCCCCCC[N+](C)(C)CCOc1ccccc1.O=S(=O)([N-]S(=O)(=O)C(F)(F)F)C(F)(F)F, for which the activity coefficient reads like this: (318.15 K) 2.91 ± 0.2; (328.15 K) 2.99 ± 0.2; (338.15 K) 3.06 ± 0.21; (348.15 K) 3.15 ± 0.21; (358.15 K) 3.21 ± 0.22; (368.15 K) 3.28 ± 0.22.

For `CC(C)c1ccccc1` [isopropylbenzene] + CCCCCCCCCCCC[N+](C)(C)CCOc1ccccc1.N#C[N-]C#N, the activity coefficient was found to be 1.82 ± 0.12 (328.15 K); 1.87 ± 0.13 (338.15 K); 1.94 ± 0.13 (348.15 K); 2 ± 0.14 (358.15 K); 2.05 ± 0.14 (368.15 K); 2.11 ± 0.14 (378.15 K).

For `CC(C)c1ccccc1` [isopropylbenzene] + CCCCCCCCCCCC[N+](C)(C)CCOc1ccccc1.O=S(=O)([N-]S(=O)(=O)C(F)(F)F)C(F)(F)F, the activity coefficient (318.15 K) was 1.14 ± 0.07; the activity coefficient (328.15 K) amounted to 1.19 ± 0.08; the activity coefficient (338.15 K) came out at 1.24 ± 0.08; the activity coefficient (348.15 K) came out at 1.29 ± 0.08; the activity coefficient (358.15 K) came out at 1.34 ± 0.09; the activity coefficient (368.15 K) was found to be 1.39 ± 0.09.

Take `CO` [methanol] + CCCCCCCCCCCC[N+](C)(C)CCOc1ccccc1.N#C[N-]C#N: the activity coefficient was 0.316 ± 0.031 (328.15 K); 0.324 ± 0.032 (338.15 K); 0.332 ± 0.032 (348.15 K); 0.339 ± 0.032 (358.15 K); 0.346 ± 0.032 (368.15 K); 0.353 ± 0.032 (378.15 K).

Values taken from the NIST ThermoML archive (doi:10.1016/j.fluid.2018.09.024).
